In US12157741B2, “Macrocyclic inhibitors of DYRK1A” (DANA-FARBER CANCER INSTITUTE, INC., priority 2018, dated 2024):
Read-outs that look alike come from different tables or passages of the source.

What was measured:
Type in all cases: binding
various enzymes [1] = molecular target: various enzymes (Homo sapiens, UniProt P49674); conditions: compound 1 uM
Procedure: (§1) Ambit profiling was conducted in accordance with the manufacturer's instructions.

various enzymes [2] = molecular target: various enzymes (Homo sapiens, UniProt Q8TBX8); conditions: compound 1 uM
Procedure: as §1

various enzymes [3] = molecular target: various enzymes (Homo sapiens, UniProt P37023); conditions: compound 1 uM
Procedure: as §1

various enzymes [4] = molecular target: various enzymes (Homo sapiens, UniProt P49137); conditions: compound 1 uM
Procedure: as §1

various enzymes [5] = molecular target: various enzymes (Homo sapiens, UniProt O75914); conditions: compound 1 uM
Procedure: as §1

various enzymes [6] = molecular target: various enzymes (Homo sapiens, UniProt Q15375); conditions: compound 1 uM
Procedure: as §1

various enzymes [7] = molecular target: T1, various enzymes (Homo sapiens, UniProt Q9H093); conditions: compound 1 uM
T1 sequence (Q9H093 1-628): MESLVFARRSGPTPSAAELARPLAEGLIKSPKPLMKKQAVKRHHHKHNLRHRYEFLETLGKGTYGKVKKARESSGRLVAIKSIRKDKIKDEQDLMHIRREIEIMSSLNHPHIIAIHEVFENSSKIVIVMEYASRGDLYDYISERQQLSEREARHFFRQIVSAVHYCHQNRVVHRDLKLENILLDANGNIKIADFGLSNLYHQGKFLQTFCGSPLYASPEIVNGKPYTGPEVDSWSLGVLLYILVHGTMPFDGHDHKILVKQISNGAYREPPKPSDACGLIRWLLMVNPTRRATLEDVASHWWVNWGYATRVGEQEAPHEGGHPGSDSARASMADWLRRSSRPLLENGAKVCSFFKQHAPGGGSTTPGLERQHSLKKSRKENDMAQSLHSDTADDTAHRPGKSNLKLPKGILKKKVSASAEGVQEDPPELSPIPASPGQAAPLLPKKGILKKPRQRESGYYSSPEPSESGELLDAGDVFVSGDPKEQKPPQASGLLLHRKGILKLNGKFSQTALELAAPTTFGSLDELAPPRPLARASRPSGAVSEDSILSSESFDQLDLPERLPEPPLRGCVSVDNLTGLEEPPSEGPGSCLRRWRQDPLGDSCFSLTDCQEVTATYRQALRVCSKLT
Procedure: as §1

various enzymes [8] = molecular target: various enzymes (Homo sapiens, UniProt Q16512); conditions: compound 1 uM
Procedure: as §1

various enzymes [9] = molecular target: various enzymes (Homo sapiens, UniProt O14730); conditions: compound 1 uM
Procedure: as §1

various enzymes [10] = molecular target: various enzymes (Homo sapiens, UniProt P07333); conditions: compound 1 uM
Procedure: as §1

various enzymes [11] = molecular target: various enzymes (Homo sapiens, UniProt P43403); conditions: compound 1 uM
Procedure: as §1

various enzymes [12] = molecular target: various enzymes (Homo sapiens, UniProt P10721, A829P)
Procedure: as §1

various enzymes [13] = molecular target: various enzymes (Homo sapiens, UniProt P10721, L576P)
Procedure: as §1

various enzymes [14] = molecular target: various enzymes (Homo sapiens, UniProt Q15208); conditions: compound 1 uM
Procedure: as §1

various enzymes [15] = molecular target: various enzymes (Homo sapiens, UniProt Q9Y6R4); conditions: compound 1 uM
Procedure: as §1

various enzymes [16] = molecular target: various enzymes (Homo sapiens, UniProt Q5S007); conditions: compound 1 uM
Procedure: as §1

various enzymes [17] = molecular target: various enzymes (Homo sapiens, UniProt P42681); conditions: compound 1 uM
Procedure: as §1

various enzymes [18] = molecular target: various enzymes (Homo sapiens, UniProt Q9NRH2); conditions: compound 1 uM
Procedure: as §1

various enzymes [19] = molecular target: T2, various enzymes (Homo sapiens, UniProt O43283); conditions: compound 1 uM
T2 sequence (O43283 1-966): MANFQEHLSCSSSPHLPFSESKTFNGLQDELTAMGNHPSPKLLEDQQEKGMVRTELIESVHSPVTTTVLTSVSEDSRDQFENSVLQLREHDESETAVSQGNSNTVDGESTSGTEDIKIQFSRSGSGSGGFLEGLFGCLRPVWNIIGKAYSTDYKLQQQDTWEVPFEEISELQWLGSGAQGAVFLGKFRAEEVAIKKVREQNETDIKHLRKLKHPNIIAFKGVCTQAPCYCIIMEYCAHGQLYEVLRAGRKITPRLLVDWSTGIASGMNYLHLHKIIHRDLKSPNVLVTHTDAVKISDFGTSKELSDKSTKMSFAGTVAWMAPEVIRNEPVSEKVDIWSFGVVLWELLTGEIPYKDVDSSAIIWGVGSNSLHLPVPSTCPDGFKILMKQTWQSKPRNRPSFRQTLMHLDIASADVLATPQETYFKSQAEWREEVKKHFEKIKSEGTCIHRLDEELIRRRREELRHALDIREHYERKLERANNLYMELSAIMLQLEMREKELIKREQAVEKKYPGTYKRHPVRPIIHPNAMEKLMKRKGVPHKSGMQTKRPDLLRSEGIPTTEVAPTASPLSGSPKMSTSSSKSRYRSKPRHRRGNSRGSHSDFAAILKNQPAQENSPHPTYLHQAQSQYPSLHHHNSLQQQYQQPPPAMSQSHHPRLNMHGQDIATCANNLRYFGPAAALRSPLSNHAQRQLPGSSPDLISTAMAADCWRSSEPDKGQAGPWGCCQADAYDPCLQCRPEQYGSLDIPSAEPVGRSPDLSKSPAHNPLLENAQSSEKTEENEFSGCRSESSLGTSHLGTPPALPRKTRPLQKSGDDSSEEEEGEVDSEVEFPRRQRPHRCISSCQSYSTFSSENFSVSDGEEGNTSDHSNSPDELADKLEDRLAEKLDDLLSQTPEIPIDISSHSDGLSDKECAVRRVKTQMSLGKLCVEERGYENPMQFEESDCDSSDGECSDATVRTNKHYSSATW
Procedure: as §1

various enzymes [20] = molecular target: various enzymes (Homo sapiens, UniProt Q86YV6); conditions: compound 1 uM
Procedure: as §1

various enzymes [21] = molecular target: various enzymes (Homo sapiens, UniProt Q56UN5); conditions: compound 1 uM
Procedure: as §1

Sequence of various enzymes (Homo sapiens, UniProt P07333) (P07333 20-972): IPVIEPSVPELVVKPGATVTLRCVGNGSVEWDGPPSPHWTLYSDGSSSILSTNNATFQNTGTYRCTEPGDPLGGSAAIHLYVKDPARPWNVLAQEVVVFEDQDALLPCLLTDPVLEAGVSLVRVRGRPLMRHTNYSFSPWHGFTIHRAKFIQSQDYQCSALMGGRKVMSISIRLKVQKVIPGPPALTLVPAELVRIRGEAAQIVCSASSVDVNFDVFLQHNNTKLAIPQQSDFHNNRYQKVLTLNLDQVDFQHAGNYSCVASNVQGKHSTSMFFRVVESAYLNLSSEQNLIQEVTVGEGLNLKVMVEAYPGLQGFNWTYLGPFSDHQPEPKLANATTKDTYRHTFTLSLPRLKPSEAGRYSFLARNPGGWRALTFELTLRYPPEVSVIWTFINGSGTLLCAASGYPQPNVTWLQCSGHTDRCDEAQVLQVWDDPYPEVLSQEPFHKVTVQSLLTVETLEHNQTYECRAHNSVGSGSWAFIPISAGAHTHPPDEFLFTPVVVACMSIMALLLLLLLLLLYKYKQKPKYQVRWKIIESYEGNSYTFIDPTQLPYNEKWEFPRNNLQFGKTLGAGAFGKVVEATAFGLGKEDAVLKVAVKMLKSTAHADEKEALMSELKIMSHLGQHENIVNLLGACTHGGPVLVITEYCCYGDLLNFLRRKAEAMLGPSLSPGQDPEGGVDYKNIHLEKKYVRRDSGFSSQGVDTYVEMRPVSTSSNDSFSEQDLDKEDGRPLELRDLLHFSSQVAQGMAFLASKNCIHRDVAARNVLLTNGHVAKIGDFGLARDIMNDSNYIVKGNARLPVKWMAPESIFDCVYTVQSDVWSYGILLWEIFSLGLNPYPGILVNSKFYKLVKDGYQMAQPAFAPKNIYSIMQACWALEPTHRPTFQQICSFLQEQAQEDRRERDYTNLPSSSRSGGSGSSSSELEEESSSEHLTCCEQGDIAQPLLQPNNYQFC
Sequence of various enzymes (Homo sapiens, UniProt Q56UN5) (Q56UN5 whole entry): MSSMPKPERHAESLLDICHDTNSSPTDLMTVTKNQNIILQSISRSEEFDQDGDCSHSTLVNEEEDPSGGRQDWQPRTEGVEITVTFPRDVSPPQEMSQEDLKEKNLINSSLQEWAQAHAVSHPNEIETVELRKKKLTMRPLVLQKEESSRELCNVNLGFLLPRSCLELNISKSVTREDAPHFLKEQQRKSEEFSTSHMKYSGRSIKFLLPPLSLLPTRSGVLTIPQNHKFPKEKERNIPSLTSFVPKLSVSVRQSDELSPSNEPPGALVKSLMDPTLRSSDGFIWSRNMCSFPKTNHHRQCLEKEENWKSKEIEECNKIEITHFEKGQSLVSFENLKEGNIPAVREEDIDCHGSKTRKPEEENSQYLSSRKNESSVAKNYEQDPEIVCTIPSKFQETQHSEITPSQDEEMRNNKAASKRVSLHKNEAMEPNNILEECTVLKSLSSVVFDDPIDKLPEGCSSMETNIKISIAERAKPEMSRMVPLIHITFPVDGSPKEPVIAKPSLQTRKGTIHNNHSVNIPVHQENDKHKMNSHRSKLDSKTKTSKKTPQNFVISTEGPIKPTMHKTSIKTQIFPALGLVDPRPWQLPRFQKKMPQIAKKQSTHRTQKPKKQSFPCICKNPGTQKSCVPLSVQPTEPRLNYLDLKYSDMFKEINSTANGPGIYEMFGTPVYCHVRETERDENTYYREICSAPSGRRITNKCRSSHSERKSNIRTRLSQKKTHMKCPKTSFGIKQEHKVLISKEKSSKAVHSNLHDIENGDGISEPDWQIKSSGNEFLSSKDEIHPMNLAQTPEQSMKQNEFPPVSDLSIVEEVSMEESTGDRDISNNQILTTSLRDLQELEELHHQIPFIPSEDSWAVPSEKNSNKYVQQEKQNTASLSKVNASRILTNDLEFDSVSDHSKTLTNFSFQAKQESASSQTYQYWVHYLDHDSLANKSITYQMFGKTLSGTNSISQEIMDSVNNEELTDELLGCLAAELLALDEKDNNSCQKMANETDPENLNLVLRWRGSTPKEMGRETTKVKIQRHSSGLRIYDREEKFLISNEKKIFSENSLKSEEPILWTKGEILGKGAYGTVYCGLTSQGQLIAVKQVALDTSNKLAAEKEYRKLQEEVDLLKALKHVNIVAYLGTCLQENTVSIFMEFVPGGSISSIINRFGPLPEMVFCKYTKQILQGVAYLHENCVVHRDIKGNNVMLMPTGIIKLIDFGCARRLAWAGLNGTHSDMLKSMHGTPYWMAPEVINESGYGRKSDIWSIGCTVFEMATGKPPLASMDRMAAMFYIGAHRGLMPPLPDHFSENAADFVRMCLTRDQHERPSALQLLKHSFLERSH
Sequence of various enzymes (Homo sapiens, UniProt Q5S007) (Q5S007 whole entry): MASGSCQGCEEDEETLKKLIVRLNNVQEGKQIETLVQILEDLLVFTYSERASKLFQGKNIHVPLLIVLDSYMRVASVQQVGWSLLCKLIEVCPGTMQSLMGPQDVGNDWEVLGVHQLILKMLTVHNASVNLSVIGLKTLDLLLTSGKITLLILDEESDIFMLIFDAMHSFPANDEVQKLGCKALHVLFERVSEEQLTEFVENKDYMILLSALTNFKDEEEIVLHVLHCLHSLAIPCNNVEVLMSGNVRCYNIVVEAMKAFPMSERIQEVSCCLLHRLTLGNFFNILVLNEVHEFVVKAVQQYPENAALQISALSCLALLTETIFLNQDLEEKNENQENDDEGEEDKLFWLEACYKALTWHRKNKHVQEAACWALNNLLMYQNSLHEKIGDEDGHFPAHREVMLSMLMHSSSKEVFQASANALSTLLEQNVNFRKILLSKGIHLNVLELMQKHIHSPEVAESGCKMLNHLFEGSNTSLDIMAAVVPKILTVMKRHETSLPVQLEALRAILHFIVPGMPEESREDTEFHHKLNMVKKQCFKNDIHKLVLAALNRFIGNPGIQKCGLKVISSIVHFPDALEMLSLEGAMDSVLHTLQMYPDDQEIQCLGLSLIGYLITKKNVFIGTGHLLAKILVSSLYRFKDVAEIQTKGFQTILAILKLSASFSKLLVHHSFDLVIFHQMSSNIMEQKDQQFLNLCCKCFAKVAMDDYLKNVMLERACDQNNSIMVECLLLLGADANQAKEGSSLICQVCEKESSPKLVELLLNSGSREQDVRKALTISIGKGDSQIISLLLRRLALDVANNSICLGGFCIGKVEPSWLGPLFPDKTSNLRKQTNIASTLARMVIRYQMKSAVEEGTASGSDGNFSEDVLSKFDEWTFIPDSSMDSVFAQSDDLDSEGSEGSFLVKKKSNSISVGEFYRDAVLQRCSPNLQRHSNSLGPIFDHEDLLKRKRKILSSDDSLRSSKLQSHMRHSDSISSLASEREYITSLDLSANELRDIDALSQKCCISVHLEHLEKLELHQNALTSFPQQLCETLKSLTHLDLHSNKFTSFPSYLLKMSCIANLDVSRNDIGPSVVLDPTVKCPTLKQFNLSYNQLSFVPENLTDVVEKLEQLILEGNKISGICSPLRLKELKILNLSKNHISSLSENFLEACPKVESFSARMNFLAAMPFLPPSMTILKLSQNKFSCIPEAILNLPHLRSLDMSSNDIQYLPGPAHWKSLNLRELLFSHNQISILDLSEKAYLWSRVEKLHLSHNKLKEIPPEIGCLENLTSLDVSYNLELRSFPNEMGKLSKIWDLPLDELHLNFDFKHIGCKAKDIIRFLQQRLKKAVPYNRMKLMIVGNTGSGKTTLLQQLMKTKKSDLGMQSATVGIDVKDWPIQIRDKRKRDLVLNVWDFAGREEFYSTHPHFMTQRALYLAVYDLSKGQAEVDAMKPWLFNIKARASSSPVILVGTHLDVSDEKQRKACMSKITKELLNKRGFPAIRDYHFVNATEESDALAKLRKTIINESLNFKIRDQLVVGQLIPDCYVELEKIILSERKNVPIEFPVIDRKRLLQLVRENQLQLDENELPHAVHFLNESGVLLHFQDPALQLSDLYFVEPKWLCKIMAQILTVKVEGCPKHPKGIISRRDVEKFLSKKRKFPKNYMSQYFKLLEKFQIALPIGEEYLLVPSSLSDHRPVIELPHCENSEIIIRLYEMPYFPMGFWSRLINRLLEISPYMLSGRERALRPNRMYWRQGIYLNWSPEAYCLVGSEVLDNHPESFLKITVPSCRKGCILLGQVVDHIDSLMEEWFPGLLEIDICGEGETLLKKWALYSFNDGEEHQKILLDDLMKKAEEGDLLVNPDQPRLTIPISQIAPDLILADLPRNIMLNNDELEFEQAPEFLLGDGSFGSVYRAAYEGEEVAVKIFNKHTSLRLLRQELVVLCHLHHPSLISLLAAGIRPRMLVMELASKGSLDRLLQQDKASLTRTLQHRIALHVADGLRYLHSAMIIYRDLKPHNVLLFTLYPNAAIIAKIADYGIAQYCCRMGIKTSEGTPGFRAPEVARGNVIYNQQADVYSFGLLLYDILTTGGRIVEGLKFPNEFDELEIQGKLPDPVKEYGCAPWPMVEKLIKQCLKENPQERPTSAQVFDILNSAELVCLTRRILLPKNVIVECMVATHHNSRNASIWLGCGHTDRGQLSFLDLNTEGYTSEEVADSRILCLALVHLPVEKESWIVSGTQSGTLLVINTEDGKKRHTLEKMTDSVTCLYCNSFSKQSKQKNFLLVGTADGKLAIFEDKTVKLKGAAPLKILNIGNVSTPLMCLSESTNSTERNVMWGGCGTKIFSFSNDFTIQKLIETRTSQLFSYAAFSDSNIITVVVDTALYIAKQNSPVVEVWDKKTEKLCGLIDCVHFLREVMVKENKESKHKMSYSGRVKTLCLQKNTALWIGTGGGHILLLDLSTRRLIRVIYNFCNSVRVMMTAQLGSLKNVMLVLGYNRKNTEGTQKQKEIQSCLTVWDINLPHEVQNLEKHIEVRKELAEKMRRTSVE

Compound | Ambit profiling: CSNK1E (various enzymes [1]) | Ambit profiling: PIP5K2C (various enzymes [2]) | Ambit profiling: ACVRL1 (various enzymes [3]) | Ambit profiling: MAPKAPK2 (various enzymes [4]) | Ambit profiling: PAK3 (various enzymes [5]) | Ambit profiling: EPHA7 (various enzymes [6]) | Ambit profiling: SNARK (various enzymes [7]) | Ambit profiling: PKN1 (various enzymes [8]) | Ambit profiling: RIOK3 (various enzymes [9]) | Ambit profiling: CSF1R (various enzymes [10]) | Ambit profiling: CSF1R-autoinhibited (various enzymes [10]) | Ambit profiling: ZAP70 (various enzymes [11]) | Ambit profiling: NDR1 (various enzymes [14]) | Ambit profiling: MAP3K4 (various enzymes [15]) | Ambit profiling: LRRK2 (various enzymes [16]) | Ambit profiling: TXK (various enzymes [17]) | Ambit profiling: SNRK (various enzymes [18]) | Ambit profiling: LZK (various enzymes [19]) | Ambit profiling: MYLK4 (various enzymes [20]) | Ambit profiling: YSK4 (various enzymes [21]) | other results
CC(C)N1Cc2nn(C)cc2-c2cnc3[nH]cc(c3c2)-c2cn(nc2C(F)(F)F)CCCC1=O [Compound 45, (Z)-5-isopropyl-31-methyl-13-(trifluoromethyl)-11H,21H,31H-5-aza-2(3,5)-pyrrolo[2,3-b]pyridina-1(4,1),3(4,3)-dipyrazolacyclononaphan-6-one] | 23 | 100 | 36 | 100 | 12 | 59 | 14 | 72 | 6 | 8.4 | 39 | 83 | 59 | 94 | 44 | 15 | 100 | 42 | 100 | 17 | Ambit profiling: KIT(A829P) (various enzymes [12]; compound 1 uM): 14; Ambit profiling: KIT(L576P) (various enzymes [13]; compound 1 uM): 4.5
COc1c2c(nn1C)CN(C(C)C)C(=O)CCCn1cc(c(C(F)(F)F)n1)-c1c[nH]c3ncc-2cc13 [Compound 50, (Z)-5-isopropyl-35-methoxy-31-methyl-13-(trifluoromethyl)-11H,21H,31H-5-aza-2(3,5)-pyrrolo[2,3-b]pyridina-1(4,1),3(4,3)-dipyrazolacyclononaphan-6-one] | 13 | 20 | 67 | 100 | 24 | 50 | 47 | 34 | 11 | 3.3 | 27 | 100 | 64 | 60 | 50 | 3.2 | 86 | 68 | 77 | 0.1 | Ambit profiling: KIT(A829P) (various enzymes [12]): 19; Ambit profiling: KIT(L576P) (various enzymes [13]): 4
